Read-outs that look alike come from different tables or passages of the source.
Legend:
[1] = biological target: T1, HCV NS5B RdRp genotype 1b (Hepatitis C virus genotype 1b, UniProt Q9WMX2); assay: HCV NS5B RdRp enzyme assay (standard / modified); type: biochemical
T1 construct: The protein was expressed with an 18 amino acid C-terminal truncation to enhance the solubility; made in house; host or cells: E. coli BL21(DE3), pET21a vector
Experimental: HCV NS5B RdRp Cloning, Expression, and Purification.
The cDNA encoding the NS5B protein of HCV, genotype 1b, was cloned into the pET21a expression vector. The protein was expressed with an 18 amino acid C-terminal truncation to enhance the solubility. The E. coli competent cell line BL21(DE3) was used for expression of the protein. Cultures were grown at 37° C. for ˜4 hours until the cultures reached an optical density of 2.0 at 600 nm. The cultures were cooled to 20° C. and induced with 1 mM IPTG. Fresh ampicillin was added to a final concentration of 50 μg/ml and the cells were grown overnight at 20° C.
The lysis buffer consisted of 20 mM Tris-HCl, pH 7.4, 500 mM NaCl, 0.5% triton X-100, 1 mM DTT, 1 mM EDTA, 20% glycerol, 0.5 mg/ml lysozyme, 10 mM MgCl2, 15 ug/ml deoxyribonuclease I, and Complete TM protease inhibitor tablets (Roche). After addition of the lysis buffer, frozen cell pellets were resuspended using a tissue homogenizer. To reduce the viscosity of the sample, aliquots of the lysate were sonicated on ice using a microtip attached to a Branson sonicator. The sonicated lysate was centrifuged at 100,000×g for 1 hr at 4° C. and filtered through a 0.2 μm filter unit (Corning).
The protein was purified using two sequential chromatography steps: Heparin sepharose CL-6B and polyU sepharose 4B (Pharmacia). The chromatography buffers were identical to the lysis buffer but contained no lysozyme, deoxyribonuclease I, MgCl2 or protease inhibitor and the NaCl concentration of the buffer was adjusted according to the requirements for charging the protein onto the column. Each column was eluted with a NaCl gradient which varied in length from 5-50 column volumes depending on the column type. […] The enzyme was aliquoted and stored at −80° C.
Standard HCV NS5B RdRp Enzyme Assay.
HCV RdRp genotype 1b assays were run in a final volume of 60 μl in 96 well plates (Corning 3600). The assay buffer is composed of 20 mM Hepes, pH 7.5, 2.5 mM KCl, 2.5 mM MgCl2, 1 mM DTT, 1.6 U RNAse inhibitor (Promega N2515), 0.01 mg/ml BSA (Sigma B6917), and 2% glycerol. All compounds were serially diluted (3-fold) in DMSO and diluted further in water such that the final concentration of DMSO in the assay was 2%. HCV RdRp genotype 1b enzyme was used at a final concentration of 28 nM. A polyA template was used at 6 nM, and a biotinylated oligo-dT12 primer was used at 180 nM final concentration. Template was obtained commercially (Amersham 27-4110). Biotinylated primer was prepared by Sigma Genosys. 3H-UTP was used at 0.6 μCi (0.29 μM total UTP). Reactions were initiated by the addition of enzyme, incubated at 30° C. for 60 min, and stopped by adding 25 μl of 50 mM EDTA containing SPA beads (4 μg/μl, Amersham RPNQ 0007). Plates were read on a Packard Top Count NXT after >1 hr incubation at room temperature.
Modified HCV NS5B RdRp Enzyme Assay.
A modified enzyme assay was performed essentially as described for the standard enzyme assay except for the following: The biotinylated oligo dT12 primer was precaptured on streptavidin-coated SPA beads by mixing primer and beads in assay buffer and incubating at room temperature for one hour. Unbound primer was removed after centrifugation. The primer-bound beads were resuspended in 20 mM Hepes buffer, pH 7.5 and used in the assay at final concentrations of 20 nM primer and 0.67 μg/μl beads. Order of addition in the assay: enzyme (1.75 nM) was added to diluted compound followed by the addition of a mixture of template (0.36 nM), 3H-UTP (0.6 μCi, 0.29 μM), and primer-bound beads, to initiate the reaction; concentrations given are final. Reactions were allowed to proceed for 4 hours at 30° C.
IC50 values for compounds were determined using seven different [I].

HCV replicon cells = assay: HCV replicon FRET / luciferase assay; type: cell-based, Hepatitis C virus
Experimental: The HCV FRET screening assay was performed in 96-well cell culture plates. The FRET peptide (Anaspec, Inc.) (Taliani et al., Anal. Biochem. 1996, 240, 60-67) contains a fluorescence donor, EDANS, near one end of the peptide and an acceptor, DABCYL, near the other end. The fluorescence of the peptide is quenched by […] resonance energy transfer (RET) between the donor and the acceptor, but as the NS3 protease cleaves the peptide the products are released from RET quenching and the fluorescence of the donor becomes apparent. The assay reagent was made as follows: 5× cell Luciferase cell culture lysis reagent from Promega (#E153A) diluted to 1× with dH2O, NaCl added to 150 mM final, the FRET peptide diluted to 20 μM final from a 2 mM stock.
To prepare plates, HCV replicon cells, with or without a Renilla luciferase reporter gene, were trypsinized and plated in a 96-well plate with titrated test compounds added in columns 3 through 12; columns 1 and 2 contained a control compound (HCV control inhibitor), and the bottom row contained cells with DMSO only. The plates were then placed in a CO2 incubator at 37° C.
Subsequent to addition of the test compounds described above (FRET Assay Preparation), at various times the plate was removed and Alamar blue solution (Trek Diagnostics, #00-100) was added to measure cellular toxicity. After reading in a Cytoflour 4000 instrument (PE Biosystems), plates were rinsed with PBS and then used for FRET assay by the addition of 30 ul of the FRET peptide assay reagent described above (FRET Assay Preparation) per well. The plate was then placed into the Cytoflour 4000 instrument which had been set to 340 excite/490 emission, automatic mode for up to 20 cycles and the plate read in a kinetic mode. Typically, the signal to noise using an endpoint analysis after the reads was at least three-fold. Alternatively, after Alamar blue reading, plates were rinsed with PBS, then used for luciferase assay using the Promega Dual-Glo Luciferase Assay System or the Promega EnduRen Live Cell Substrate assay.
Compound analysis was performed by quantification of the relative HCV replicon inhibition and the relative cytotoxicity values. To calculate cytoxicity values, the average Alamar Blue fluorescence signals from the control wells were set as 100% non-toxic. The individual signals in each of the compound test wells were then divided by the average control signal and multiplied by 100% to determine […]. To calculate the HCV replicon inhibition values, an average background value was obtained from the two wells containing the highest amount of HCV control inhibitor at the end of the assay period. These numbers were similar to those obtained from naïve Huh-7 cells. The background numbers were then subtracted from the average signal obtained from the control wells and this number was used as 100% activity. The individual signals in each of the compound test wells were then divided by the averaged control values after background subtraction and multiplied by 100% to determine percent activity. […] The two numbers generated for the compound plate, percent cytoxicity and percent activity, were used to determine compounds of interest for further analysis.

[2] = HCV NS5B RdRp genotype 1b enzyme, read-out: IC50
[3] = Hepatitis C virus, HCV replicon cells, FRET or luciferase activity, read-out: EC50

T1 sequence (Q9WMX2 2420-2992): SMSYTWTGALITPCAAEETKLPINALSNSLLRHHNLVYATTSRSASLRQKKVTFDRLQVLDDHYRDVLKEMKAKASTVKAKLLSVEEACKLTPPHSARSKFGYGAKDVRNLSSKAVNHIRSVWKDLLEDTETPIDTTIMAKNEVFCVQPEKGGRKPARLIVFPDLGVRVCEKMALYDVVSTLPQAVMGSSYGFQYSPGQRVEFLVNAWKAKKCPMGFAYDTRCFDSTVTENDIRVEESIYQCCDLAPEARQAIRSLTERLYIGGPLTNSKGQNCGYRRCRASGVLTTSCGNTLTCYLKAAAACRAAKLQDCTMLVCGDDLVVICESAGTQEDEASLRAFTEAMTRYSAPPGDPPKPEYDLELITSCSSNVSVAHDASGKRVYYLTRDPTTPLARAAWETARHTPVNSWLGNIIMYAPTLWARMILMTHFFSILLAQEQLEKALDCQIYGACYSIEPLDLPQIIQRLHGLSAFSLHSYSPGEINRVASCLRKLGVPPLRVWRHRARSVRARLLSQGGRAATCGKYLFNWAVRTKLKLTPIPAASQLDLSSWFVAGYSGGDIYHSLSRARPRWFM

SMILES: COc1ccc2c(c1)C1CC1(C(=O)N1CC3CCC(C1)N3C(=O)OC(C)(C)C)Cn1c-2c(C2CCCCC2)c2ccc(C(=O)NS(=O)(=O)N(C)C)cc21 (stereo not drawn)
- IC50 [1]: < 20 nM
- EC50 (HCV replicon cells; Hepatitis C virus): 1 to 500 nM

SMILES: COc1ccc2c(c1)C1CC1(C(=O)N1CC3CCC(C1)N3)Cn1c-2c(C2CCCCC2)c2ccc(C(=O)NS(=O)(=O)N(C)C)cc21 (stereo not drawn)
- IC50 [1]: 1 to 500 nM
- EC50 (HCV replicon cells; Hepatitis C virus): 1 to 500 nM

SMILES: COc1ccc2c(c1)C1CC1(C(=O)N1CC3CCC(C1)N3C(C)C)Cn1c-2c(C2CCCCC2)c2ccc(C(=O)NS(=O)(=O)N(C)C)cc21 (stereo not drawn)
- IC50 [1]: < 20 nM
- EC50 (HCV replicon cells; Hepatitis C virus): 1 to 500 nM

SMILES: COc1ccc2c(c1)C1CC1(C(=O)N1C3CCC1CN(C)C3)Cn1c-2c(C2CCCCC2)c2ccc(C(=O)NS(=O)(=O)C3CC3)cc21 (stereo not drawn)
- IC50 [1]: 1 to 500 nM
- EC50 (HCV replicon cells; Hepatitis C virus): 1 to 500 nM

SMILES: COc1ccc2c(c1)[C@@H]1C[C@]1(C(=O)N1C3CCC1CN(C)C3)Cn1c-2c(C2CCCCC2)c2ccc(C(=O)NS(=O)(=O)N(C)C)cc21
- IC50 [1, 2]: 1 to 500 nM
- EC50 (HCV replicon cells; [3]): 1 to 500 nM

SMILES: COc1ccc2c(c1)[C@H]1C[C@@]1(C(=O)N1[C@@H]3CC[C@H]1CN(C)C3)Cn1c-2c(C2CCCCC2)c2ccc(C(=O)NS(=O)(=O)N(C)C)cc21
- IC50 [1, 2]: 1 to 500 nM
- EC50 (HCV replicon cells; [3]): 1 to 500 nM

SMILES: COc1ccc2c(c1)C1CC1(CN1C3CCC1CN(C)C3)Cn1c-2c(C2CCCCC2)c2ccc(C(=O)NS(=O)(=O)N(C)C)cc21 (stereo not drawn)
- IC50 [1]: 1 to 500 nM
- EC50 (HCV replicon cells; Hepatitis C virus): 1 to 500 nM

SMILES: COc1ccc2c(c1)C1CC1(C(=O)N1C3CCC1CN(C(=O)OCc1ccccc1)C3)Cn1c-2c(C2CCCCC2)c2ccc(C(=O)NS(=O)(=O)N(C)C)cc21 (stereo not drawn)
- IC50 [1]: 1 to 500 nM
- EC50 (HCV replicon cells; Hepatitis C virus): 1 to 500 nM

SMILES: COc1ccc2c(c1)C1CC1(C(=O)N1C3CCC1CN(C)C3)Cn1c-2c(C2CCCCC2)c2ccc(C(=O)NS(=O)(=O)N3CCCC3)cc21 (stereo not drawn)
- IC50 [1]: 1 to 500 nM
- EC50 (HCV replicon cells; Hepatitis C virus): 1 to 500 nM

SMILES: COc1ccc2c(c1)[C@@H]1C[C@]1(C(=O)N1[C@@H]3CC[C@H]1CN(C(=O)N(C)C)C3)Cn1c-2c(C2CCCCC2)c2ccc(C(=O)NS(=O)(=O)N(C)C)cc21
- IC50 [1]: 1 to 500 nM
- EC50 (HCV replicon cells; Hepatitis C virus): 1 to 500 nM

SMILES: COc1ccc2c(c1)[C@@H]1CC1[C@@H](C(=O)N1C3CCC1CN(C)C3)n1c-2c(C2CCCCC2)c2ccc(C(=O)N(C)S(=O)(=O)N(C)C)cc21 (stereo partly drawn)
- IC50 [1]: > 500 nM
- EC50 (HCV replicon cells; Hepatitis C virus): > 40 nM

SMILES: COc1ccc2c(c1)C1CC1(C(=O)N1C3CCC1CN(C)C3)Cn1c-2c(C2CCCCC2)c2ccc(C(=O)NS(=O)(=O)C3CCCCC3)cc21 (stereo not drawn)
- IC50 [1]: 1 to 500 nM
- EC50 (HCV replicon cells; Hepatitis C virus): 1 to 500 nM

SMILES: CCCCS(=O)(=O)NC(=O)c1ccc2c(C3CCCCC3)c3n(c2c1)CC1(C(=O)N2C4CCC2CN(C)C4)CC1c1cc(OC)ccc1-3 (stereo not drawn)
- IC50 [1]: 1 to 500 nM
- EC50 (HCV replicon cells; Hepatitis C virus): 1 to 500 nM

SMILES: CCC(C)S(=O)(=O)NC(=O)c1ccc2c(C3CCCCC3)c3n(c2c1)CC(C(=O)N1C2CCC1CN(C)C2)=Cc1cc(OC)ccc1-3 (stereo not drawn)
- IC50 [1]: 1 to 500 nM
- EC50 (HCV replicon cells; Hepatitis C virus): 1 to 500 nM

SMILES: CCC(CC)S(=O)(=O)NC(=O)c1ccc2c(C3CCCCC3)c3n(c2c1)CC1(C(=O)N2C4CCC2CN(C)C4)CC1c1cc(OC)ccc1-3 (stereo not drawn)
- IC50 [1]: 1 to 500 nM
- EC50 (HCV replicon cells; Hepatitis C virus): > 110 nM

SMILES: COc1ccc2c(c1)[C@@H]1CC1(C(=O)N1C3CCC1CN(C)C3)Cn1c-2c(C2CCCCC2)c2ccc(C(=O)NS(=O)(=O)C3CCC3)cc21 (stereo partly drawn)
- IC50 [1]: 1 to 500 nM
- EC50 (HCV replicon cells; [3]): 1 to 500 nM

SMILES: COc1ccc2c(c1)[C@@H]1CC1(C(=O)N1C3CCC1CN(C)C3)Cn1c-2c(C2CCCCC2)c2ccc(C(=O)NS(=O)(=O)CC(C)C)cc21 (stereo partly drawn)
- IC50 [1]: 1 to 500 nM
- EC50 (HCV replicon cells; [3]): 1 to 500 nM

SMILES: COc1ccc2c(c1)C1CC1(C(=O)N1C3CCC1CN(C)C3)Cn1c-2c(C2CCCCC2)c2ccc(C(=O)NS(=O)(=O)CC(F)F)cc21 (stereo not drawn)
- IC50 [1]: 1 to 500 nM
- EC50 (HCV replicon cells; Hepatitis C virus): 1 to 500 nM

SMILES: COc1ccc2c(c1)C1CC1(C(=O)N1C3CCC1CN(C)C3)Cn1c-2c(C2CCCCC2)c2ccc(C(=O)NS(=O)(=O)C(F)(F)F)cc21 (stereo not drawn)
- IC50 [1]: 1 to 500 nM
- EC50 (HCV replicon cells; Hepatitis C virus): 1 to 500 nM

SMILES: COc1ccc2c(c1)C1CC1(C(=O)N1C3CCC1CN(C)C3)Cn1c-2c(C2CCCCC2)c2ccc(C(=O)NS(=O)(=O)N(C)C)cc21 (stereo not drawn) [drawing 24]
- IC50 [1, 2]: 1 to 500 nM
- EC50 (HCV replicon cells; HCV replicon cells, FRET or luciferase activity, read-out: EC50): 1 to 500 nM

SMILES: CNS(=O)(=O)NC(=O)c1ccc2c(C3CCCCC3)c3n(c2c1)CC1(C(=O)N2C4CCC2CN(C)C4)CC1c1cc(OC)ccc1-3 (stereo not drawn) [drawing 29]
- IC50 [1]: 1 to 500 nM
- EC50 (HCV replicon cells; Hepatitis C virus): 1 to 500 nM

SMILES: COc1ccc2c(c1)C1CC1(C(=O)N1C3CCC1CN(C)C3)Cn1c-2c(C2CCCCC2)c2ccc(C(=O)NS(=O)(=O)N3CCC3)cc21 (stereo not drawn) [drawing 30]
- IC50 ([1]; HCV NS5B RdRp genotype 1b enzyme): 1 to 500 nM
- EC50 (HCV replicon cells; HCV replicon cells, FRET or luciferase activity): 1 to 500 nM

SMILES: COc1ccc2c(c1)C1CC1(C(=O)N1C3CCC1CN(C)C3)Cn1c-2c(C2CCCCC2)c2ccc(C(=O)NS(=O)(=O)N3CCOCC3)cc21 (stereo not drawn) [drawing 31]
- IC50 [1]: 1 to 500 nM
- EC50 (HCV replicon cells; Hepatitis C virus): 1 to 500 nM

SMILES: COc1ccc2c(c1)C1CC1(C(=O)N1C3CCC1CN(C)C3)Cn1c-2c(C2CCCCC2)c2ccc(C(=O)NS(=O)(=O)N3CCN(C)CC3)cc21 (stereo not drawn) [drawing 32]
- IC50 [1]: 1 to 500 nM
- EC50 (HCV replicon cells; Hepatitis C virus): 1 to 500 nM

From US20130171098A1, “Cyclopropyl Fused Indolobenzazepine HCV NS5B Inhibitors” (priority 2006, published 2013)
